Test results published in US20040057961A1, “Human t cell response to mhc-binding motif clusters” (priority 2000, published 2004).

Key:
[1] = system: peripheral blood mononuclear cells from Mtb-immune (PPD skin-test positive) subjects; assay: Lymphoproliferation assay ([3H]thymidine, stimulation index) with PBMC of Mtb-immune subjects; type: cell-based, human; settings: for Phil % responders (n = 38) / Phil # responders (n = 38): Philippines cohort; for Phil % responders (n = 38) / Phil # responders (n = 38) / Prov % responders (n = 22) / Prov # responders (n = 22): response positive if SI≧2.0; for Phil # responders (n = 38) / Prov # responders (n = 22): peptide 1 and 10 μg/ml; for Prov % responders (n = 22) / Prov # responders (n = 22): Providence cohort; for number of Mtb-immune responders (proliferative response SI≧2.0): all Mtb-immune subjects
[2] = system: peripheral blood mononuclear cells from Mtb-naive (PPD skin-test negative) subjects; assay: Lymphoproliferation assay ([3H]thymidine, stimulation index) with PBMC of Mtb-naive subjects; type: cell-based, human; settings: n=19

Substance	Phil % responders (n = 38) [1] [%]	Phil # responders (n = 38) [1]	Prov % responders (n = 22) [1] [%]	Prov # responders (n = 22) [1]	number of Mtb-immune responders (proliferative response SI≧2.0) ([1]; n=40)	other results
LKLGLVEFGGVAKLNAEVMS (listed as Mycobacterium tuberculosis) [14-3, 14 kDa Mtb protein, amino acids 30-49]	8	3	10	4	six	–
phytohemagglutinin [reference compound]	–	–	–	–	–	response to mitogen in words ([1]; 1 μg/ml, the 41 subjects who were tested (both groups)): robust response
QNVTGSVVCTTAAGNVN [19-2]	–	–	–	–	six	–
FAYGSFVRTVSLPVGA (listed as Mycobacterium tuberculosis) [16-5, 16 kDa Mtb protein, amino acids 92-107]	–	–	–	–	six	% responders among Mtb-immune subjects ([1]; n=40): 28%; Mtb-naive controls that responded [2]: none
FSELFAAFPSFAGLRPTFDT [16-2, 16 kDa Mtb protein, amino acids 17-36]	10	4	3	1	–	–
KFLEGFVRTSNIKFQD (listed as Mycobacterium tuberculosis) [32-9, 32 kDa Mtb protein, amino acids 227-242]	–	–	–	–	six	–
CEVWSNVSETISGPRLYGEM (listed as Mycobacterium tuberculosis) [14-5, 14 kDa Mtb protein, amino acids 74-93]	5	2	5	2	–	–
LAIGGAATGIAAVLTDGNPP [19-3]	–	–	–	–	six	–
PLLNVGKLIANNTRVWVY (listed as Mycobacterium tuberculosis) [32-8, 32 kDa Mtb protein, amino acids 193-210]	–	–	–	–	–	% responders among Mtb-immune subjects ([1]; n=40): 25%; Mtb-naive controls that responded [2]: none
LAIYHPQQFVYAGAMSGLLD (listed as Mycobacterium tuberculosis) [32-7, 32 kDa Mtb protein, amino acids 135-154]	–	–	–	–	six	–
VGLSMAASSALTLAIYHPQQ (listed as Mycobacterium tuberculosis) [32-6, 32 kDa Mtb protein, stop at amino acid 142]	–	–	–	–	six	–
VSETISGPRLYGEMTMQGTR (listed as Mycobacterium tuberculosis) [14-6, 14 kDa Mtb protein, amino acids 80-99]	3	1	3	1	–	–
MLGNAPSVVPNTTLGMHC (listed as Mycobacterium tuberculosis) [14-1, 14 kDa Mtb protein, amino acids 1-18]	5	2	5	2	–	–
RSLFPEFSELFAAFPSFAGL (listed as Mycobacterium tuberculosis) [16-1, 16 kDa Mtb protein, amino acids 11-30]	10	4	5	2	six	–
GSFGSAPSNGWLKLGLVEFG (listed as Mycobacterium tuberculosis) [14-2, 14 kDa Mtb protein, amino acids 19-38]	15	6	8	3	six	–
QAVMLGTGTPNRA (listed as Mycobacterium tuberculosis) [14-4, 14 kDa Mtb protein, amino acids 56-68]	8	3	3	1	–	–
TT: tetanus toxoid, control antigen (Connaught) [reference compound]	–	–	–	–	–	Mtb-immune subjects showing a proliferative response in vitro ([1]; control antigen 5 μg/ml, n=40): All but six; stimulation index (SI) range ([1]; control antigen 5 μg/ml, range over responding subjects): 2-182; Mtb-naive controls not showing a proliferative response ([2]; control antigen 5 μg/ml): one
RHVKPTGSAVVGLSMAASSA [32-5, 32 kDa Mtb protein, amino acids 113-132]	–	–	–	–	six	–
AELPGVDPDKDVD (listed as Mycobacterium tuberculosis) [16-3, 16 kDa Mtb protein, amino acids 54-66]	–	–	–	–	one	–
SVVMPVGGQSSFYSDW (listed as Mycobacterium tuberculosis) [32-3, 32 kDa Mtb protein, amino acids 67-82]	–	–	–	–	only a few	–
